# How the values were obtained:
# group II mGlu receptors = conditions: cited from earlier work
# human mGlu3 = target: T1, human mGlu3 (Homo sapiens, UniProt Q14832); assay: mGlu GIRK cell-based thallium flux assay, human mGlu3; conditions: HEK-293 cells co-expressing human mGlu3 and GIRK; EC80 glutamate; Tl flux
# T1 construct: expressed in transfected cells; host or cells: HEK-293
# Description: Human embryonic kidney (HEK-293) cell lines stably co-expressing human or rat mGlu2 and G protein-coupled inwardly rectifying potassium (GIRK) channels, or human mGlu3 and GIRK, were used for in vitro evaluation of compound activity in thallium flux assay using a fluorescent thallium indicator dye.
# The day before the assay, GIRK cells co-expressing human mGlu3, human or rat mGlu2, as described above, were plated in black-walled, clear-bottomed, amine-coated 384-well plates at a density of 15,000 cells/20 μL/well in the assay medium (glutamine-depleted basal DMEM supplemented with 10% dialyzed FBS, 20 mM HEPES, 1 mM sodium pyruvate). Cells were incubated at 37° C. in the presence of 5% CO2. The next day, assay buffer (Hanks balanced salt solution, 20 mM HEPES, 4.16 mM sodium bicarbonate, pH 7.2) was prepared to dilute compounds and Thallos AM fluorescent dye solution. The 2× Thallos dye solution (final concentration 0.34 μM to the cells) was prepared by mixing the dye stock (2.97 mM in DMSO) to 1:1 with 10% pluronic acid before adding to the assay buffer. Cells were washed with assay buffer using a microplate washer to remove the medium, resulting in 20 μL of buffer remaining in each well. Immediately, 20 μL of 2× Thallos dye solution was added to cells, and incubated for one hour at 25° C. During the cell dye loading incubation period, a 10-point concentration serial dilution of compound was created from a 10 mM DMSO compound stock by performing a 1:3 serial dilution in DMSO using the Bravo liquid handler. The 2× compound plate was generated by transferring 0.24 μL of the diluted compound in each well to a daughter plate using an Echo acoustic liquid handler. This is further diluted in 40 μL assay buffer, resulting in a range from 30 μM to 1.5 nM final concentration in the assay. The agonist plate (5×) was prepared to include EC80 glutamate concentration (a concentration to elicit 80% of a maximally effective glutamate concentration) in thallium buffer (125 mM […], 1 mM magnesium sulfate, 1.8 mM calcium sulfate, 5 mM glucose, 10 mM HEPES, pH 7.2, 12.5 mM thallium sulfate).
# (§1) After dye-loading, cell plates were washed with assay buffer to remove excess extracellular dye using a microplate washer, resulting in 20 μL of buffer remaining in each well. After a ten-minute equilibration period, cell, compound and agonist plates were loaded into a Hamamatsu μCell kinetic imaging plate reader equipped with liquid handler to monitor fluorescence changes at 480 nm excitation and 540 nm emission settings. Briefly, after collection of baseline fluorescence, 20 μL of compound was added and incubated for two minutes and twenty seconds. This is immediately followed by adding 10 μL of glutamate-thallium buffer to the wells containing compound. The fluorescent signal was monitored an additional 2.5 minutes after the glutamate addition. Multiple reference wells containing no compound received either no glutamate (for a baseline reference), […] glutamate, or ECmax glutamate (for normalization to maximum response). Fluorescence was measured throughout the experiment at a frequency of 1 measurement per every 2 seconds before the glutamate addition and a frequency of 1 measurement per every 1 second after the glutamate addition. Each compound concentration series occurred one time in each plate, and replicates from two or three plates were used in each experimental run. Thallium solutions were handled and disposed of according to guidelines from the Vanderbilt University Chemical Safety department.
# Data were normalized using a static ratio function (F/F0) by dividing every fluorescent measurement by the initial fluorescent value for the corresponding well. The increase in signal resulting from the glutamate/thallium addition of the second add was measured by determining the slope from 3 seconds to 13 seconds after the addition. […]
# human mGlu2 = target: T2, human mGlu2 (Homo sapiens, UniProt Q14416); assay: mGlu GIRK cell-based thallium flux assay, human mGlu2; conditions: HEK-293 cells co-expressing human mGlu2 and GIRK; EC80 glutamate; Tl flux
# T2 construct: expressed in transfected cells; host or cells: HEK-293
# Description: The day before the assay, GIRK cells co-expressing human mGlu3, human or rat mGlu2, as described above, were plated in black-walled, clear-bottomed, amine-coated 384-well plates at a density of 15,000 cells/20 μL/well in the assay medium (glutamine-depleted basal DMEM supplemented with 10% dialyzed FBS, 20 mM HEPES, 1 mM sodium pyruvate). Cells were incubated at 37° C. in the presence of 5% CO2. […] Cells were washed with assay buffer using a microplate washer to remove the medium, resulting in 20 μL of buffer remaining in each well. Immediately, 20 μL of 2× Thallos dye solution was added to cells, and incubated for one hour at 25° C. During the cell dye loading incubation period, a 10-point concentration serial dilution of compound was created from a 10 mM DMSO compound stock by performing a 1:3 serial dilution in DMSO using the Bravo liquid handler. The 2× compound plate was generated by transferring 0.24 μL of the diluted compound in each well to a daughter plate using an Echo acoustic liquid handler.
# as §1
# Data were normalized using a static ratio function (F/F0) by dividing every fluorescent measurement by the initial fluorescent value for the corresponding well. The increase in signal resulting from the glutamate/thallium addition of the second add was measured by determining the slope from 3 seconds to 13 seconds after the addition. The average of all baseline slopes (no compound, no glutamate) was determined and this value was subtracted from all other slope values. The average of all ECmax slopes was determined and this value was used to normalize the baseline-corrected slopes to a percent max value (% Emax). The % Emax values for each compound series were plotted versus the log of the concentration and fit to a 4-parameter logistical equation with no fixed parameters.
# Potency is reported as the IC50 resulting from the curve fit.
# Helpless (H) mice = conditions: chronic (21 days) treatment; cited from earlier work
# T2 sequence (Q14416 19-872): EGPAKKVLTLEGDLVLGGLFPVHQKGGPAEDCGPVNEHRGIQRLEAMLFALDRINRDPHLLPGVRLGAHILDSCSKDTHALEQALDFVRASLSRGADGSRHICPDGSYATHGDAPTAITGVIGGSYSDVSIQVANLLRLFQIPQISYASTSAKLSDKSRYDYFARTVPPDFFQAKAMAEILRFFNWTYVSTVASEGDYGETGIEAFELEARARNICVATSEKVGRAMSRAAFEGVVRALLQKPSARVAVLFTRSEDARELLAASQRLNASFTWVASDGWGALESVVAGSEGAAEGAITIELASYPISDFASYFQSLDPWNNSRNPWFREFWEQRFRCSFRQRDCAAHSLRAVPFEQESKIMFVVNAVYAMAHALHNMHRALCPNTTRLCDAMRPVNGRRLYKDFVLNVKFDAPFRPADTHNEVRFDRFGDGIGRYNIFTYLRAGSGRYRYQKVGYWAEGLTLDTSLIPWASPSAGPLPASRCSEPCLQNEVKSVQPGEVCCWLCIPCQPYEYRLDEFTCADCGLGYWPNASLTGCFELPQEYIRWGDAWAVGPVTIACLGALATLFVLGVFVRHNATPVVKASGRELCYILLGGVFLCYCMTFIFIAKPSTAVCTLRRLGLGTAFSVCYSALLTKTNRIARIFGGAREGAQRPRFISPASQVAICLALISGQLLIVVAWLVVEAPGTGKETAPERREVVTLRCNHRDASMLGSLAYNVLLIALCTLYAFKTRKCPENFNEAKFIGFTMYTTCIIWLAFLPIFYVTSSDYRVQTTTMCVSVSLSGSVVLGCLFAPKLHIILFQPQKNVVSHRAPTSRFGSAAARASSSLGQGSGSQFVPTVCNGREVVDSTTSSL
# T1 sequence (Q14832 23-879): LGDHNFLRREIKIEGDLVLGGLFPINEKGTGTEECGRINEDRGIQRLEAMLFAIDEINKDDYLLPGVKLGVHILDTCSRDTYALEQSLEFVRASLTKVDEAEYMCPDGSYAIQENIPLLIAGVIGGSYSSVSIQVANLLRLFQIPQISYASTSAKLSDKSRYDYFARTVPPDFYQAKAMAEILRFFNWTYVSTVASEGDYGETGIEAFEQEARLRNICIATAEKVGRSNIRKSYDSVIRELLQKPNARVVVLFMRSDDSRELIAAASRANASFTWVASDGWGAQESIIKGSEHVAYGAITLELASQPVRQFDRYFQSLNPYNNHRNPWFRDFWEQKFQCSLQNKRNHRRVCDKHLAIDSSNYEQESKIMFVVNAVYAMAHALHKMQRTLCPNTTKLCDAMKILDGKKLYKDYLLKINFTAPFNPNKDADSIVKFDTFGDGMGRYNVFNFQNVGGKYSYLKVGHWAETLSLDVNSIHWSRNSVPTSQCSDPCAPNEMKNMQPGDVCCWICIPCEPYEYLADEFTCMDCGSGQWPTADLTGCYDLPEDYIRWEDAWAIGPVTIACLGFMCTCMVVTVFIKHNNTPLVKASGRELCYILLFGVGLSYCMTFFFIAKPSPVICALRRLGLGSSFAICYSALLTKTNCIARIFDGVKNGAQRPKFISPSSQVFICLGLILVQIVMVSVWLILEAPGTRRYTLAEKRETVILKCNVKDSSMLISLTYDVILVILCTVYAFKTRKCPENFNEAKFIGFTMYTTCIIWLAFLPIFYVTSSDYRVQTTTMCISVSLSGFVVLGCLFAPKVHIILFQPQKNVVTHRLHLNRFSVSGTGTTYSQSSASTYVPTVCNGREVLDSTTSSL
Compound,Human mGlu3 GIRK IC50 (nM) (human mGlu3),IC50 (human mGlu2) [nM],also measured
N[C@]1(C(=O)O)[C@H]2[C@@H](C[C@H]1OCc1ccc(Cl)c(Cl)c1)[C@]2(F)C(=O)O [BCI-632],–,–,time for which brain concentration was sufficient to inhibit group II mGlu receptors (group II mGlu receptors; active metabolite after once-daily oral dosing of prodrug BCI-838): 22 h
CCCCCCCOC(=O)[C@@]1(F)[C@@H]2C[C@@H](OCc3ccc(Cl)c(Cl)c3)[C@@](N)(C(=O)O)[C@@H]21 [BCI-838],–,–,"levels of monomeric and oAβ peptides in the hippocampus and cortex (group II mGlu receptors; three months of treatment, two AD mouse models): decreased; Dutch APP transgene-associated learning and memory impairment (group II mGlu receptors; three months of treatment): reversed; anxiolytic effects (group II mGlu receptors; three months of treatment): anxiolytic effects; hippocampal progenitor cell proliferation (group II mGlu receptors; wild-type and Alzheimer's diseased mice, 3 months): stimulated"
"O=C1NCc2cc(OCc3ccccc3F)c(-c3ccc(F)cc3)cc21 [Compound 8, 5-((2-fluorobenzyl)oxy)-6-(4-fluorophenyl)isoindolin-1-one]",Inactive,3200,–
"Cc1ocnc1COc1cc2c(cc1-c1ccc(F)cc1)C(=O)NC2 [Compound 9, 6-(4-fluorophenyl)-5-((5-methyloxazol-4-yl)methoxy)isoindolin-1-one]",Inactive,150,–
"O=C1NCc2cc(OCc3cc4n(n3)CCCO4)c(-c3ccc(F)cc3)cc21 [Compound 10, 5-((6,7-dihydro-5H-pyrazolo[5,1-b][1,3]oxazin-2-yl)methoxy)-6-(4-fluorophenyl)isoindolin-1-one]",Inactive,423,–
"COc1ccc(-c2cc3c(cc2OCc2ccn(C)n2)CNC3=O)c(F)c1 [Compound 11, 6-(2-fluoro-4-methoxyphenyl)-5-((1-methyl-1H-pyrazol-3-yl)methoxy)isoindolin-1-one]",Inactive,131,–
"COc1ccc(-c2cc3c(cc2OCc2ccn(C)n2)CNC3=O)cc1 [Compound 12, 6-(4-methoxyphenyl)-5-((1-methyl-1H-pyrazol-3-yl)methoxy)isoindolin-1-one]",Inactive,170,–
"Cn1ccc(COc2cc3c(cc2-c2ccccc2F)C(=O)NC3)n1 [Compound 13, 6-(2-fluorophenyl)-5-((1-methyl-1H-pyrazol-3-yl)methoxy)isoindolin-1-one]",Inactive,214,–
"Cn1ccc(COc2cc3c(cc2-c2ccc(C#N)cc2)C(=O)NC3)n1 [Compound 14, 4-(6-((1-methyl-1H-pyrazol-3-yl)methoxy)-3-oxoisoindolin-5-yl)benzonitrile]",Inactive,242,–
"COc1ccc(-c2cc3c(cc2OCc2csc(C)n2)CNC3=O)c(F)c1 [Compound 15, 6-(2-fluoro-4-methoxyphenyl)-5-((2-methylthiazol-4-yl)methoxy)isoindolin-1-one]",Inactive,360,–
"Cc1nc(COc2cc3c(cc2-c2ccccc2F)C(=O)NC3)cs1 [Compound 16, 6-(2-fluorophenyl)-5-((2-methylthiazol-4-yl)methoxy)isoindolin-1-one]",Inactive,357,–
"O=C1NCc2cc(OCc3ccn(C(F)F)n3)c(-c3ccc(F)cc3)cc21 [Compound 17, 5-((1-(difluoromethyl)-1H-pyrazol-3-yl)methoxy)-6-(4-fluorophenyl)isoindolin-1-one]",Inactive,292,–
"Cc1nc(COc2cc3c(cc2-c2ccc(F)cc2)C(=O)NC3)cs1 [Compound 18, 6-(4-fluorophenyl)-5-((2-methylthiazol-4-yl)methoxy)isoindolin-1-one]",Inactive,363,–
"COc1ccc(-c2cc3c(cc2OCc2csc(C)n2)CNC3=O)cc1 [Compound 19, 6-(4-methoxyphenyl)-5-((2-methylthiazol-4-yl)methoxy)isoindolin-1-one]",Inactive,119,–
"Cc1nc(COc2cc3c(cc2-c2ccccc2C#N)C(=O)NC3)cs1 [Compound 20, 2-(6-((2-methylthiazol-4-yl)methoxy)-3-oxoisoindolin-5-yl)benzonitrile]",Inactive,189,–
"[2H]C([2H])([2H])Oc1ccccc1-c1cc2c(cc1OCc1csc(C)n1)CNC2=O [Compound 21, 6-(2-(methoxy-d3)phenyl)-5-((2-methylthiazol-4-yl)methoxy)isoindolin-1-one]",Inactive,1320,–
"[2H]C([2H])([2H])Oc1ccc(-c2cc3c(cc2OCc2csc(C)n2)CNC3=O)cc1 [Compound 22, 6-(4-(methoxy-d3)phenyl)-5-((2-methylthiazol-4-yl)methoxy)isoindolin-1-one]",Inactive,115,–
"[2H]C([2H])([2H])Oc1ccccc1-c1cc2c(cc1OCc1ccn(C)n1)CNC2=O [Compound 23, 6-(2-(methoxy-d3)phenyl)-5-((1-methyl-1H-pyrazol-3-yl)methoxy)isoindolin-1-one]",Inactive,7720,–
"[2H]C([2H])([2H])Oc1ccc(-c2cc3c(cc2OCc2ccn(C)n2)CNC3=O)cc1 [Compound 24, 6-(4-(methoxy-d3)phenyl)-5-((1-methyl-1H-pyrazol-3-yl)methoxy)isoindolin-1-one]",Inactive,99.5,–
"COc1ccc(-c2cc3c(cc2OCc2ccn(C(F)F)n2)CNC3=O)c(F)c1 [Compound 25, 5-((1-(difluoromethyl)-1H-pyrazol-3-yl)methoxy)-6-(2-fluoro-4-methoxyphenyl)isoindolin-1-one]",Inactive,40,–
CNCCC(Oc1ccc(C(F)(F)F)cc1)c1ccccc1 (stereo not drawn) [fluoxetine],–,–,antidepressant effect in helpless mice (Helpless (H) mice): full antidepressant effect
